Laboratory results from US20020006421A1, “Long-acting, chemical-resistant skin emollients, moisturizers, and strengtheners” (priority 1997, published 2002).

Assay: Reaction with N-acetylcysteamine (model for skin-bound sulfhydryl groups) in the presence of base, followed by 1H NMR
Conditions: for time after which the reaction was complete by NMR: 1 equivalent N-acetylcysteamine per crotonyl moiety, CDCl3
Excerpt: As a model for skin-bound sulfhydryl groups (—SH) of cysteine residues in skin proteins, the compound N-acetylcysteamine was allowed to react with OSM in the presence of a catalytic amount of the base 1,5-diazabicyclo[4.3.0]non-5-ene (DBN) in chloroform solution.
As a model for skin-bound sulfhydryl groups (—SH) of cysteine residues in skin proteins, the compound N-acetylcysteamine was allowed to react with OCM in the presence of a catalytic amount of the base 1,5-diazabicyclo[4.3.0]non-5-ene (DBN) in chloroform solution.
As a model for skin bound sulfhydryl groups (—SH) of cysteine residues in skin proteins, the compound N-acetylcysteamine was allowed to react with DCPEG in the presence of a catalytic amount of the base 1,5-diazabicyclo[4.3.0]non-5-ene (DBN) in chloroform solution.
A solution of octadecyl S-sorbyl-3 -mercaptopropionate (10.9 mg, 0.024 mmol) in 0.3 mL of CDCl3 was added to a solution of N-acetylcysteamine (5.2 μL, 0.048 mmol) and DBN (3.1 μL, 0.025 mmol) in 0.3 mL of CDCl3. The mixture was immediately transferred to an NMR tube and the first spectrum was recorded at time=0. The reaction solution was allowed to stand at room temperature in the NMR tube for two days, and the course of the reaction was monitored by periodically recording the ^1H NMR spectrum. A total often ^1H NMR experiments were performed at time=0, 0.25, 0.5, 1, 1.5, 4.5, 12, 20.5, 26, and 39 hours.
The time course of the reaction of OSM with 2 equiv of N-acetylcysteamine in the presence of 1 equiv of DBN in 0.6 mL of CDCl3 was studied by recording ^1H NMR spectra at various times for 39 hours. The signals of the olefinic protons due to the sorbate group of OSM (δ 6.2-6.0 and δ 7.2) and that of the newly formed C═C bond of the monoadducts (δ 5.6-5.2) were monitored in particular. In the course of these experiments, it was observed that the signals at δ 6.2-6.0 and δ 7.2 disappeared, while those at δ 5.6-5.2 appeared over the first 1.5 hours of the reaction, which indicated the formation of the monoadducts. The olefinic protons signals of the monoadducts started to fade away gradually after 1.5 hours and became very weak by approximately 39 hours. These spectra may imply the formation of the diadduct.
The reaction of OCM with N-acetylcysteamine was carried out at room temperature as follows: 22.0 mg of OCM was dissolved in 0.6 mL of CDCl3 and 5.7 μL of N-acetylcysteamine (1 equivalent) was added. […] Then a catalytic amount (0.1 equiv) of the base DBN was added, and the NMR spectrum was recorded immediately and again after 5 minutes. By 5 minutes, more than 60% of the OCM had reacted as judged by the diminished integration of the resonances at 6.9 ppm and 6.1 ppm due to the vinyl protons of the crotonyl moiety of OCM. […] A COSY spectrum confirmed that the expected product, shown earlier herein, had been formed. Nucleophilic attack by the sulfur atom of N-acetylcysteamine, presumably as the thiolate anion, at the β-position of the unsaturated thiol ester generated the expected covalent adduct. […]
The reaction of DCPEG with N-acetylcysteamine was followed by NMR: 35.6 mg of DCPEG was dissolved in 0.7 mL CDCl3 and the spectrum was recorded before and after addition of N-acetylcysteamine (1 equivalent per crotonyl moiety). […]

[1] = 2 equiv N-acetylcysteamine, 1 equiv DBN, CDCl3, room temperature

Row | Molecule | time after which the reaction was complete by NMR (0.1 equiv DBN) | OCM reacted, judged by diminished integration of the vinyl proton resonances (1 equivalent N-acetylcysteamine, 0.1 equiv DBN, CDCl3, room temperature, by 5 minutes) | time by which the monoadduct olefinic proton signals became very weak (may imply diadduct formation) [1] | time over which sorbate olefinic signals disappeared and monoadduct signals appeared [1]
1 | C/C=C/C(=O)SCCC(=O)OCCCCCCCCCCCCCCCCCC [OCM, octadecyl S-crotonyl-3-mercaptopropionate] | 27 min | more than 60% | – | –
2 | S,S′-dicrotonyl-α-thio-ω-mercapto[poly(ethylene glycol)] [DCPEG] | 5 min | – | – | –
3 | C/C=C/C=C/C(=O)SCCC(=O)OCCCCCCCCCCCCCCCCCC [OSM, octadecyl S-sorbyl-3-mercaptopropionate] | – | – | approximately 39 hours | ≤ 1.5 h
